According to patent publication US20230203044A1, “PYRAZOLO[1,5-D][1,2,4]TRIAZINE-5(4H)-ACETAMIDES AS INHIBITORS OF THE NLRP3 INFLAMMASOME” (JANSSEN PHARMACEUTICA NV, priority 2020, published 2023):

Tests used:
[1] = system: NLRP3 inflammasome; assay: PBMC assay: IL-1β in LPS-stimulated human PBMCs (MSD); assay type: cell-based; settings: human PBMCs, 100 ng/ml LPS for 6 hrs, IL-1β in supernatant via MSD, read-out: IL1β IC50
Experimental: The activity of a compound according to the present invention can be assessed by in vitro methods.
Peripheral venous blood was collected from healthy individuals and human peripheral blood mononuclear cells (PBMCs) were isolated from blood by Ficoll-Histopaque (Sigma-Aldrich, A0561) density gradient centrifugation. After isolation, PBMCs were stored in liquid nitrogen for later use. Upon thawing, PBMC cell viability was determined in growth medium (RPMI media supplemented with 10% fetal bovine serum, 1% Pen-Strep and 1% L-glutamine). […] PBMCs were added at a density of 7.5×10^4 cells per well and incubated for 30 min in a 5% CO2 incubator at 37° C. LPS stimulation was performed by addition of 100 ng/ml LPS (final concentration, Invivogen, tlrl-smlps) for 6 hrs followed by collection of cellular supernatant and the analysis of IL-1β (μM) and TNF cytokines levels (μM) via MSD technology according to manufacturers' guidelines (MSD, K151A0H).

[2] = system: TNF; assay: PBMC assay: TNF cytokine levels in LPS-stimulated human PBMCs (MSD); assay type: cell-based; settings: 100 ng/ml LPS for 6 hrs, TNF in supernatant via MSD
Experimental: Peripheral venous blood was collected from healthy individuals and human peripheral blood mononuclear cells (PBMCs) were isolated from blood by Ficoll-Histopaque (Sigma-Aldrich, A0561) density gradient centrifugation. After isolation, PBMCs were stored in liquid nitrogen for later use. Upon thawing, PBMC cell viability was determined in growth medium (RPMI media supplemented with 10% fetal bovine serum, 1% Pen-Strep and 1% L-glutamine). Compounds were spotted in a 1:3 serial dilution in DMSO and diluted to the final concentration in 30 μl medium in 96 well plates (Falcon, 353072). PBMCs were added at a density of 7.5×10^4 cells per well and incubated for 30 min in a 5% CO2 incubator at 37° C. LPS stimulation was performed by addition of 100 ng/ml LPS (final concentration, Invivogen, tlrl-smlps) for 6 hrs followed by collection of cellular supernatant and the analysis of IL-1β (μM) and TNF cytokines levels (μM) via MSD technology according to manufacturers' guidelines (MSD, K151A0H).
The IC50 values (for IL-1β) and EC50 values (TNF) were obtained on compounds of the invention/examples, and are depicted in the following table: […]

| Compound | IC50 [1] [µM] | EC50 [2] [µM] |
| --- | --- | --- |
| CCCc1cc2c(=O)n(CC(=O)Nc3ccncn3)nc(C(C)C)n2n1 [Final Cpd 12] | 0.6 | > 10 |
| CC(C)c1nn(CC(=O)Nc2cc(Br)c3nncn3c2)c(=O)c2cc(C3CC3)nn12 [Final Cpd 95] | 0.37 | > 10 |
| O=C(Cn1nc(C2CC2)n2nc(C3CC3)cc2c1=O)Nc1ccc2nncn2n1 [Final Cpd 163, N-([1,2,4]triazolo[4,3-b]pyridazin-6-yl)-2-(2,7-dicyclopropyl-4-oxopyrazolo[1,5-d][1,2,4]triazin-5(4H)-yl)acetamide] | 0.62 | > 10 |
| Cc1nccc(NC(=O)Cn2nc(C(C)C)n3nc(C4CC4)cc3c2=O)c1Cl [Final Cpd 120] | 0.55 | > 10 |
| CC(C)c1nn(CC(=O)Nc2ccc(=O)n(C)c2)c(=O)c2cc(C3CC3)nn12 [Final Cpd 28] | 0.38 | > 10 |
| CC(C)c1nn(CC(=O)Nc2cnc3ccnn3c2)c(=O)c2cc(C3CC3)nn12 [Final Cpd 101] | 7.75 | > 10 |
| CCNc1cc2c(=O)n(CC(=O)Nc3ccc(=O)n(C)n3)nc(C(C)C)n2n1 [Final Cpd 74] | 0.22 | > 10 |
| CCc1nn(CC(=O)Nc2ccncn2)c(=O)c2cc(C)nn12 [Final Cpd 14] | 8.11 | > 10 |
| CN(C)c1nn(CC(=O)Nc2ccc3nncn3c2)c(=O)c2cc(C3CC3)nn12 [Final Cpd 37] | 0.56 | > 10 |
| COCCNc1nn(CC(=O)Nc2ccc3nncn3c2)c(=O)c2cc(C3CC3)nn12 [Final Cpd 39] | 2.49 | > 10 |
| CC(C)c1nn(CC(=O)Nc2ccnc(C(F)F)c2)c(=O)c2cc(C3CC3)nn12 [Final Cpd 130] | 0.53 | > 10 |
| CC(C)c1cc2c(=O)n(CC(=O)Nc3ccc4nncn4c3)nc(C(C)C)n2n1 [Final Cpd 143] | 0.1 | > 10 |
| CC(C)c1cc2c(=O)n(CC(=O)N[C@H]3C[C@@](C)(O)C3)nc(N(C)C)n2n1 [Final Cpd 150] | 0.36 | > 10 |
| CCNc1cc2c(=O)n(CC(=O)Nc3ccncn3)nc(C(C)C)n2n1 [Final Cpd 72] | 0.054 | > 10 |
| CC(C)c1nn(CC(=O)NC2CCC(=O)N(CC3CC3)C2)c(=O)c2cc(C3CC3)nn12 (centres unmarked) [Final Cpd 25] | 2.34 | > 10 |
| COCCN(C)c1nn(CC(=O)Nc2ccc3nncn3c2)c(=O)c2cc(C3CC3)nn12 [Final Cpd 38] | > 10 | > 10 |
| CC(C)c1nn(CC(=O)Nc2ccc3ncnn3c2)c(=O)c2cc(C3CC3)nn12 [Final Cpd 82] | 0.28 | > 10 |
| CC(C)c1nn(CC(=O)Nc2ccc3nccn3c2)c(=O)c2cc(C3CC3)nn12 [Final Cpd 91] | 0.31 | > 10 |
| CC(C)c1nn(CC(=O)Nc2ccc3nnc(C(F)F)n3c2)c(=O)c2cc(C3CC3)nn12 [Final Cpd 92] | 0.92 | > 10 |
| Cc1cn2nc(NC(=O)Cn3nc(C(C)C)n4nc(C5CC5)cc4c3=O)ccc2n1 [Final Cpd 114] | 0.35 | > 10 |
| COCCCc1nn(CC(=O)N[C@H]2C[C@@](C)(O)C2)c(=O)c2cc(C3CC3)nn12 [Final Cpd 194, 2-(2-cyclopropyl-7-(3-methoxypropyl)-4-oxopyrazolo[1,5-d][1,2,4]triazin-5(4H)-yl)-N-((ls,3s)-3-hydroxy-3-methylcyclobutyl)acetamide] | > 10 | > 10 |
| CC(C)c1nn(CC(=O)Nc2ccc3nncn3c2)c(=O)c2cc(C(C)(F)F)nn12 [Final Cpd 175, N-([1,2,4]triazolo[4,3-a]pyridin-6-yl)-2-(2-(1,1-difluoroethyl)isopropyl-4-oxopyrazolo[1,5-d][1,2,4]triazin-5(4H)-yl)acetamide] | 0.22 | > 10 |
| Cc1ccc(NC(=O)Cn2nc(C(C)C)n3nc(C4CC4)cc3c2=O)cn1 [Final Cpd 122] | 0.82 | > 10 |
| CCc1nn(CC(=O)NC2CCCC2)c(=O)c2ccnn12 [Final Cpd 78] | > 10 | > 10 |
| CCc1nn(CC(=O)Nc2ccncn2)c(=O)c2cc(C(C)C)nn12 [Final Cpd 16] | 0.84 | > 10 |
| Cc1noc(C)c1[C@@H](c1ccccc1)N1CC(NC(=O)Cn2nc(C)n3nc(C4CC4)cc3c2=O)C1 [Final Cpd 58] | 9.41 | > 10 |

| Compound | IC50 [1] [µM] | EC50 [2] [µM] |
| --- | --- | --- |
| CC(C)c1nn(CC(=O)Nc2ccnnc2)c(=O)c2cc(C3CC3)nn12 [Final Cpd 32] | 0.15 | > 10 |
| CC(C)c1nn(CC(=O)Nc2ccncn2)c(=O)c2cc(N)nn12 [Final Cpd 186, 2-(2-amino-7-isopropyl-4-oxopyrazolo[1,5-d][1,2,4]triazin-5(4H)-yl)-N-(pyrimidin-4-yl)acetamide] | > 10 | > 10 |
| CC(C)c1nn(CC(=O)Nc2ccc3nnnn3n2)c(=O)c2cc(C3CC3)nn12 [Final Cpd 169] | 0.16 | > 10 |
| CC(C)c1cc2c(=O)n(CC(=O)Nc3ccncn3)nc(C(C)O)n2n1 (centres unmarked) [Final Cpd 156] | 1.96 | > 10 |
| CC(C)c1nn(CC(=O)Nc2ccc(Cl)nc2)c(=O)c2cc(C3CC3)nn12 [Final Cpd 110] | 0.59 | > 10 |
| CC(C)c1nn(CC(=O)Nc2ccc(C(F)F)nc2)c(=O)c2cc(C3CC3)nn12 [Final Cpd 116] | 1.23 | > 10 |
| CCc1nn(CC(=O)N[C@H]2C[C@@](C)(O)C2)c(=O)c2cc(I)nn12 [Final Cpd 7] | 0.6 | > 10 |
| CC(C)c1nn(CC(=O)Nc2ccncc2Cl)c(=O)c2cc(C3CC3)nn12 [Final Cpd 133] | 0.44 | ≥ 10 |
| Cc1nccc(NC(=O)Cn2nc(C(C)C)n3nc(C4CC4)cc3c2=O)c1F [Final Cpd 97] | 0.2 | > 10 |
| CCC(C)c1nn(CC(=O)N[C@H]2C[C@@](C)(O)C2)c(=O)c2cc(C3CC3)nn12 (some centres unmarked) [Final Cpd 201] | > 10 | > 10 |
| CC(C)c1cc2c(=O)n(CC(=O)Nc3ccc4nncn4c3)nc(N(C)C)n2n1 [Final Cpd 148] | 0.32 | > 10 |
| Cc1nc2ccc(NC(=O)Cn3nc(C(C)C)n4nc(C5CC5)cc4c3=O)cn2n1 [Final Cpd 89] | 0.23 | > 10 |
| CC(C)c1nn(CC(=O)Nc2cnccc2Cl)c(=O)c2cc(C3CC3)nn12 [Final Cpd 135] | 6.93 | > 10 |
| CC(C)c1cc2c(=O)n(CC(=O)N[C@H]3C[C@@](C)(O)C3)nc(C(C)O)n2n1 (some centres unmarked) [Final Cpd 154] | 3 | > 10 |
| CC(C)c1nn(CC(=O)N[C@H]2C[C@@](C)(O)C2)c(=O)c2cc(C3CC3(F)F)nn12 (some centres unmarked) [Final Cpd 153] | 0.09 | > 10 |
| COc1cc(NC(=O)Cn2nc(C(C)C)n3nc(C4CC4)cc3c2=O)ccn1 [Final Cpd 129] | 0.67 | > 10 |
| CC(C)c1nn(CC(=O)Nc2ccc3nc(C#N)cn3c2)c(=O)c2cc(C3CC3)nn12 [Final Cpd 99] | 0.49 | > 10 |
| CC(C)c1cc2c(=O)n(CC(=O)N[C@H]3C[C@@](C)(O)C3)nc(C(C)C)n2n1 [Final Cpd 142] | 0.14 | > 10 |
| CC(C)c1nn(CC(=O)Nc2ccc3nc(C(F)(F)F)cn3c2)c(=O)c2cc(C3CC3)nn12 [Final Cpd 167] | 0.38 | > 10 |
| CC(C)c1nn(CC(=O)Nc2ccc3nccn3n2)c(=O)c2cc(C3CC3)nn12 [Final Cpd 165] | 0.1 | > 10 |
| Cc1nn(CC(=O)N[C@]23CC[C@H](CC2)C3)c(=O)c2cc(C3CC3)nn12 [Final Cpd 64] | 5.5 | > 10 |
| CC(C)c1nn(CC(=O)Nc2ccncc2F)c(=O)c2cc(C3CC3)nn12 [Final Cpd 96] | 0.24 | > 10 |
| CC(C)c1nn(CC(=O)N[C@@H]2CCCNC2)c(=O)c2cc(C3CC3)nn12 [Final Cpd 187, (R)-2-(2-cyclopropyl-7-isopropyl-4-oxopyrazolo[1,5-d][1,2,4]triazin-5(4H)-yl)-N-(piperidin-3-yl)acetamide] | 0.8 | > 10 |
| CCNc1cc2c(=O)n(CC(=O)Nc3ccc4nncn4c3)nc(C(C)C)n2n1 [Final Cpd 75] | 0.024 | 7.04 |
| CC(C)c1nn(CC(=O)Nc2ccc3nncn3c2)c(=O)c2cc(I)nn12 [Final Cpd 23] | 0.055 | > 10 |
| Cc1nn(CC(=O)NC2(CO)CCCC2)c(=O)c2cc(C3CC3)nn12 [Final Cpd 57] | > 10 | > 10 |
